Measured values: EP4656640A1, “IRAK4 DEGRADER AND USE THEREOF” (Shanghai Qilu Pharmaceutical Research and Development …, priority 2023, dated 2024)
Like-named read-outs stand apart in the source and are kept apart here.

Legend:
[1] = Mouse pharmacokinetics, oral (Experiment 1); assay type: in vivo, C57BL/6 mice; conditions: mice, PO 100 mg/kg, fasted overnight, plasma
Method: C57BL/6 mice were used as test animals to study the pharmacokinetic behavior of the compounds of the present disclosure in mouse plasma after oral administration at a dose of 100 mg/kg.
C57BL/6, male, transferred from the animal repository of the laboratory institution (999M-018).
Three male C57BL/6 mice were fasted overnight (10-14 hours) with free access to water one day before administration. The mice were fed 4 hours after administration. The dose for PO administration was 100 mg/kg, with an administration volume of 20 mL/kg.
After administration, blood samples (0.03 mL) were collected from the mice via venipuncture at 0.083, 0.25, 0.5, 1, 2, 4, 8, and 24 hours. The samples were placed in EDTA-K2 tubes and centrifuged at 6800 rpm for 5 minutes at 2-8°C. The plasma was separated and stored at -80°C.
• 1) 10 µL of plasma sample was added to 200 µL of methanol for precipitation. After mixing, the mixture was centrifuged at 18000 g for 10 minutes. • 2) The processed supernatant solution was taken for LC/MS/MS analysis to determine the concentration of the test compound.
• Liquid phase conditions: Shimadzu LC-30AD pump • Mass spectrometry conditions: AB Sciex API 5500 mass spectrometer • Chromatographic column: Phenomenex Kinetex 2.6 µm C18 50 3.0 mm • Mobile phase: Solution A was 0.1% formic acid in water, and solution B was 0.1% formic acid in acetonitrile • Flow rate: 0.6 mL/min • Elution time: Gradient elution for 0-1.6 minutes.
The main pharmacokinetic parameters were calculated using WinNonlin 8.0.

[2] = Dog pharmacokinetics, oral gavage (Experiment 3); assay type: in vivo; conditions: Beagle dogs, oral gavage 2.5 mg/kg, plasma
Method: Healthy Beagle dogs, male, weighing about 8-10 kg, 3 animals per group.
The animals were not fasted and had free access to water.
Venous blood (0.5-0.8 mL) was collected at 15 minutes, 30 minutes, 1 hour, 2 hours, 4 hours, 8 hours, and 24 hours after oral gavage administration, placed in K2EDTA tubes, and centrifuged at 4°C to separate plasma. The concentration of the compound in plasma was determined by liquid chromatography-tandem mass spectrometry.
The main pharmacokinetic parameters were calculated using WinNonlin. […] Table 8. Pharmacokinetic parameters of some compounds of the present disclosure administered orally to dogs

TNFα secretion = experiment: Inhibition of induced TNFα secretion in human PBMCs (CBA); assay type: cell-based; conditions: PBMC
Method: (§1) The effect of PROTAC small molecules on inflammatory factors in PBMCs downstream of IRAK4 induced by TLR and IL-1 was detected based on the CBA (cytometric bead array) method.
(§2) Step 2: The density of PBMCs was adjusted to 1 E6/mL, and 150 µL of PBMCs in 1640 complete medium were seeded into a 96-well plate, followed by incubation at 37°C for 1 hour.
(§3) Step 3: 50 µL of serially diluted small molecule (working concentration: 10000 nM, 1:3 dilution) drugs were inoculated into the plate in a 37°C incubator for 8 hours.
(§4) Step 4: 10 µL of stimulants were added respectively, with final concentrations of 100 ng/mL for LPS, 1 µg/mL for R848, and 100 ng/mL for IL-1β.
(§5) Step 5: CBA assay. The concentrations of IL-6 and TNF-α in the cell culture supernatant were determined using Hu IL-6 CBA Flex Set A7 and Hu TNF- CBA Flex Set D9.
(§6) Step 6: Standard samples were prepared: 2500 pg/mL, 1250 pg/mL,...0. A 1:2 serial dilution was performed to obtain 10 concentrations.
(§7) Step 7: The mixed capture beads were resuspended in capture bead diluent (1:50), and cell culture supernatant (50 µL) was added, followed by incubation at room temperature for 10 minutes.
(§8) Step 8: The detection reagent prepared with detection diluent was added, and the mixture was incubated in the dark at room temperature for 3 hours. At the end of incubation, the samples were washed once with wash buffer and resuspended for detection.
(§9) The concentrations of IL-6 and TNFα were calculated using the standard curve method. Data presentation and IC50 calculation were performed using Prism 8.0.2.

IL-6 secretion = experiment: Inhibition of induced IL-6 secretion in human PBMCs (CBA); assay type: cell-based; conditions: PBMC
Method: as §1, §2, §3, §4, §5, §6, §7, §8, §9

IRAK4 [3] = biological target: T1, IRAK4 (Homo sapiens, UniProt Q9NWZ3); assay type: cell-based; set-up: endogenous in cells; host or cells: OCI-LY3; conditions: read-out: OCI-LY3 DC50
T1 sequence (Q9NWZ3 1-460): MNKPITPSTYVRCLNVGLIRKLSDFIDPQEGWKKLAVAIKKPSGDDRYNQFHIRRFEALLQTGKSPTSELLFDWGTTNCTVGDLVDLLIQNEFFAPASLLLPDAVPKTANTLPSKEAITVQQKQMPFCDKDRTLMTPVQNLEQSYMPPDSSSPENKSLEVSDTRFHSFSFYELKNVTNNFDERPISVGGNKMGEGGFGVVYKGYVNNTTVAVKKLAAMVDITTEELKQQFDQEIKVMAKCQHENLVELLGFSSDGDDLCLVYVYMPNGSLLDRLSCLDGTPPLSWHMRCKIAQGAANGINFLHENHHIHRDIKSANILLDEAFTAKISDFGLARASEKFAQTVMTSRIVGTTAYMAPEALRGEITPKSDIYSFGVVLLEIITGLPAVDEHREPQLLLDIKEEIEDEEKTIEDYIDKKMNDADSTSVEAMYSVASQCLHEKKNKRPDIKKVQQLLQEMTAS

IRAK4 [4] = biological target: T1, IRAK4; experiment: Degradation of IRAK4 in SU-DHL-2 cells (flow cytometry); assay type: cell-based; set-up: The degradation level of IRAK4 protein in SU-DHL-2 cell line by the compounds was detected by flow cytometry; endogenous in cells; host or cells: SU-DHL-2; OCI-LY3
Method: The degradation level of IRAK4 protein in SU-DHL-2 cell line by the compounds was detected by flow cytometry.
Step 2: On day 1, the cells were seeded at a density of 2 × 10^5 cells per well in 100 µL in a 96-well plate. The compounds were dissolved in DMSO to a final concentration of 10 mM, and then diluted with culture medium at a 1:5 concentration gradient to prepare 10 concentrations. The diluted solutions were added to the cells to obtain a maximum final concentration of 2 µM. Wells containing cells treated with 0.1% DMSO served as the […] The cells were incubated at 37°C in a 5% CO2 incubator for 24 hours.
Step 3: After centrifugation, the cells were washed with FACS buffer. The cells were stained for viability discrimination using the LIVE/DEAD™ Fixable Blue Dead Cell Stain Kit, and surface staining of monocytes was performed with PE Mouse Anti-Human CD14, followed by incubation at 4°C for 30 minutes.
Step 4: After centrifugation, the cells were washed with FACS buffer. Fix buffer I, equal in volume to the cultured cells, was added, and the cells were fixed at 37°C for 10 minutes.
Step 5: After centrifugation, the cells were washed with FACS buffer. 150 µL of Perm III reagent was added, and the cells were incubated at 4°C for 30 minutes to permeabilize the membranes. After centrifugation, the cells were washed with FACS buffer.
Flow cytometry analysis was performed using a flow cytometer.
The flow cytometry data were analyzed using Flowjo software. Data presentation and DC50 (half-maximal degradation concentration) calculation were performed using Prism 8.0.2 (GraphPad).

[5] = IL-1β 100 ng/mL, read-out: IC50, TNFα secretion induced by IL-1β
[6] = LPS 100 ng/mL, read-out: IC50, TNFα secretion induced by LPS
[7] = R848 1 µg/mL, read-out: IC50, TNFα secretion induced by R848
[8] = IL-1β 100 ng/mL, read-out: IC50 of compounds against induced secretion, IL-6, IL-1β
[9] = LPS 100 ng/mL, read-out: IC50 of compounds against induced secretion, IL-6, LPS
[10] = R848 1 µg/mL, read-out: IC50 of compounds against induced secretion, IL-6, R848
[11] = read-out: SU-DHL-2 DC50; SU-DHL-2 cells, 24 hours incubation
[12] = SU-DHL-2 cells, 24 hours incubation; read-out: SU-DHL-2 DC50

Compound: Cn1c(=O)n(C2CCC(=O)NC2=O)c2cccc(C#CCO[C@H]3CC[C@H](CN4CCC5(CC4)CC(n4cc(NC(=O)c6cnn7ccc(N8C[C@H]9C[C@@H]8CO9)nc67)c(C(F)F)n4)C5)CC3)c21 (stereo partly shown) [Example 31]
- AUC(0-inf) [1]: 5460 ng·h/mL
- AUC(0-t) at 24 h [1]: 4890 ng·h/mL
- Cmax [1]: 364 ng/mL
- MRT inf [1]: 10.4 h
- Tmax [1]: 3.3 h
- half-life [1]: 7.3 h
- AUC(0-t) at 24 h [2]: 198 ng·h/mL
- Cmax [2]: 15 ng/mL
- MRT inf [2]: 12 h
- half-life [2]: 8 h
- IC50 (TNFα secretion; [5]): 2.1 nM
- IC50 (TNFα secretion; [6]): 7.7 nM
- IC50 (TNFα secretion; [7]): 8.2 nM
- IC50 (IL-6 secretion; [8]): 9.3 nM
- IC50 (IL-6 secretion; [9]): 4.6 nM
- IC50 (IL-6 secretion; [10]): 0.9 nM

Compound: Cn1c(=O)n(C2CCC(=O)NC2=O)c2cccc(C#CCOC3CCN(C(=O)N4CCC5(CC4)CC(n4cc(NC(=O)c6cnn7ccc(N8C[C@H]9C[C@@H]8CO9)nc67)c(C(F)F)n4)C5)CC3)c21 (stereo partly shown) [Example 13]
- AUC(0-inf) [1]: 19200 ng·h/mL
- AUC(0-t) at 24 h [1]: 16300 ng·h/mL
- Cmax [1]: 2160 ng/mL
- MRT inf [1]: 10.9 h
- Tmax [1]: 1 h
- half-life [1]: 7.6 h
- AUC(0-t) at 24 h [2]: 521 ng·h/mL
- Cmax [2]: 102 ng/mL
- MRT inf [2]: 4.5 h
- half-life [2]: 2.1 h
- IC50 (TNFα secretion; [5]): 13 nM
- IC50 (TNFα secretion; [6]): 22.3 nM
- IC50 (TNFα secretion; [7]): 20 nM
- IC50 (IL-6 secretion; [8]): 13.2 nM
- IC50 (IL-6 secretion; [9]): 19.7 nM
- IC50 (IL-6 secretion; [10]): 10 nM

Compound: Cn1c(=O)n(C2CCC(=O)NC2=O)c2cccc(C#CCOCCCCN3CCC4(CC3)CC(n3cc(NC(=O)c5cnn6ccc(N7C[C@H]8C[C@@H]7CO8)nc56)c(C(F)F)n3)C4)c21 (stereo partly shown) [Example 4]
- DC50 (IRAK4 [3]): 5 nM
- DC50 (IRAK4 [4]; read-out: SU-DHL-2 DC50): 8 nM

Compound: Cn1c(=O)n(C2CCC(=O)NC2=O)c2cccc(C#CCOCCC(=O)N3CCC4(CC3)CC(n3cc(NC(=O)c5cnn6ccc(N7C[C@H]8C[C@@H]7CO8)nc56)c(C(F)F)n3)C4)c21 (stereo partly shown) [Example 8]
- DC50 (IRAK4 [3]; OCI-LY3 cells): 2 nM
- DC50 (IRAK4 [4]; [11]): 4 nM

Compound: Cn1c(=O)n(C2CCC(=O)NC2=O)c2cccc(C#CCOCCCN3CCC4(CC3)CC(n3cc(NC(=O)c5cnn6ccc(N7C[C@H]8C[C@@H]7CO8)nc56)c(C(F)F)n3)C4)c21 (stereo partly shown) [Example 2]
- DC50 (IRAK4 [3]): 0.4 nM
- DC50 (IRAK4 [4]; read-out: SU-DHL-2 DC50): 1.1 nM

Compound: Cn1c(=O)n(C2CCC(=O)NC2=O)c2cccc(C#CCCC(=O)N3CCC4(CC3)CC(n3cc(NC(=O)c5cnn6ccc(N7C[C@H]8C[C@@H]7CO8)nc56)c(C(F)F)n3)C4)c21 (stereo partly shown) [Example 24]
- DC50 (IRAK4 [3]; OCI-LY3 cells): 3 nM
- DC50 (IRAK4 [4]; [12]): 4 nM

Compound: Cn1c(=O)n(C2CCC(=O)NC2=O)c2cccc(C#CCOC(C)(C)C(=O)N3CCC4(CC3)CC(n3cc(NC(=O)c5cnn6ccc(N7C[C@H]8C[C@@H]7CO8)nc56)c(C(F)F)n3)C4)c21 (stereo partly shown) [Example 10]
- DC50 (IRAK4 [3]; OCI-LY3 cells): 13 nM
- DC50 (IRAK4 [4]; [11]): 17 nM

Compound: Cn1c(=O)n(C2CCC(=O)NC2=O)c2cccc(C#CCOCC(C)(C)C(=O)N3CCC4(CC3)CC(n3cc(NC(=O)c5cnn6ccc(N7C[C@H]8C[C@@H]7CO8)nc56)c(C(F)F)n3)C4)c21 (stereo partly shown) [Example 5]
- DC50 (IRAK4 [3]; OCI-LY3 cells): 28 nM
- DC50 (IRAK4 [4]; [11]): 27 nM

Compound: Cn1c(=O)n(C2CCC(=O)NC2=O)c2cccc(C#CCOCC3(C(=O)N4CCC5(CC4)CC(n4cc(NC(=O)c6cnn7ccc(N8C[C@H]9C[C@@H]8CO9)nc67)c(C(F)F)n4)C5)CC3)c21 (stereo partly shown) [Example 7]
- DC50 (IRAK4 [3]; OCI-LY3 cells): 10 nM
- DC50 (IRAK4 [4]; [11]): 12 nM

Compound: Cn1c(=O)n(C2CCC(=O)NC2=O)c2cccc(C#CCOCCN3CCC4(CC3)CC(n3cc(NC(=O)c5cnn6ccc(N7C[C@H]8C[C@@H]7CO8)nc56)c(C(F)F)n3)C4)c21 (stereo partly shown) [Example 1]
- DC50 (IRAK4 [3]; OCI-LY3 cells): 0.4 nM
- DC50 (IRAK4 [4]; [12]): 1.4 nM

Compound: Cn1c(=O)n(C2CCC(=O)NC2=O)c2cccc(C#CCO[C@H]3C[C@@H](CN4CCC5(CC4)CC(n4cc(NC(=O)c6cnn7ccc(N8C[C@H]9C[C@@H]8CO9)nc67)c(C(F)F)n4)C5)C3)c21 (stereo partly shown) [Example 30]
- DC50 (IRAK4 [3]; OCI-LY3 cells): 1 nM
- DC50 (IRAK4 [4]; [11]): 3 nM

Compound: Cn1c(=O)n(C2CCC(=O)NC2=O)c2cccc(C#CCCCN3CCC4(CC3)CC(n3cc(NC(=O)c5cnn6ccc(N7C[C@H]8C[C@@H]7CO8)nc56)c(C(F)F)n3)C4)c21 (stereo partly shown) [Example 17]
- DC50 (IRAK4 [3]; OCI-LY3 cells): 1 nM
- DC50 (IRAK4 [4]; [12]): 1 nM
